Laboratory results taken from article PMC10629583, “Specific inhibition of an anticancer target, polo-like kinase 1, by allosterically dismantling its mechanism of substrate recognition” (Proceedings of the National Academy of Sciences of the …, 2023).
Several values for one entry are separate records, joined by “and”; a condition that tells them apart may be missing. Equal entries are not always repeated.

Tests used:
[1] = target: T1, Plk1 PBD (PBD1) (Homo sapiens, UniProt P53350); test: FP-based inhibition assay, PBD1; type: binding
T1 construct: constructs expressing PBD1 (residues 345–603) WT (pKM7650); His; TEV site (N); made in house; host or cells: bacteria (E. coli)
Description: (§1) FP assays were carried out essentially as described previously ([35], [36]). […] All the samples were analyzed approximately 30 min after reaction in a 384-well format using the SpectraMax Paradigm multimode microplate detection platform (Molecular Devices). Data were analyzed after carrying out at least three independent experiments using GraphPad Prism software version 8.

[2] = target: T2, Plk2 PBD (PBD2) (Homo sapiens, UniProt Q9NYY3); test: FP-based inhibition assay, PBD2; type: binding; conditions: bacterially expressed purified PBD, FITC-ligand 15 nM, PBD at EC85
T2 construct: Purification of PBD2-His (355–685) (pKM3358) and its S652F mutant (pKM7980); His (C); made in house; host or cells: bacteria (E. coli)
T2 sequence (Q9NYY3 355-685): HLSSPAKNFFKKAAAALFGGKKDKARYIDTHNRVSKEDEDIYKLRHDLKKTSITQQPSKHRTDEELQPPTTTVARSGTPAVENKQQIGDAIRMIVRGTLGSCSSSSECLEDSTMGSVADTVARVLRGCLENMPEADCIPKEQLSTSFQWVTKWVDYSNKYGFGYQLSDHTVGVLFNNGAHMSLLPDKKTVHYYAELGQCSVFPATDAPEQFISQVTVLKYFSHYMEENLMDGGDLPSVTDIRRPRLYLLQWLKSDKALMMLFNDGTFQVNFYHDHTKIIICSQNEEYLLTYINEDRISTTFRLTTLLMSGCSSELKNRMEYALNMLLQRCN
Description: as §1

[3] = target: T3, Plk3 PBD (PBD3) (Homo sapiens, UniProt Q9H4B4); test: FP-based inhibition assay, PBD3; type: binding; conditions: bacterially expressed purified PBD, FITC-ligand 15 nM, PBD at EC85
T3 construct: MBP-PBD3-His (335–646) (pKM3359) and its A612F (pKM7981); His (C); made in house; host or cells: bacteria (E. coli)
T3 sequence (Q9H4B4 335-646): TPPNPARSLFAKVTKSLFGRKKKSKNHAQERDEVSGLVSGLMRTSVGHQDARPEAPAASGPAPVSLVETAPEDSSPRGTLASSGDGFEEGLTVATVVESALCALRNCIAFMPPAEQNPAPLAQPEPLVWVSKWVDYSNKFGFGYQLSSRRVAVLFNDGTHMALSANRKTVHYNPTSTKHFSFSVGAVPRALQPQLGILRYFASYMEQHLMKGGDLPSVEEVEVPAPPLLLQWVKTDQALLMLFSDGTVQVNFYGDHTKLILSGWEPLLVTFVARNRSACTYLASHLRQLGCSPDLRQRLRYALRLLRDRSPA
Description: (§2) FP assays were carried out essentially as described previously ([35], [36]). FITC-conjugated ligands (15 nM) were mixed with PBDs at their EC85 concentrations. All the samples were analyzed approximately 30 min after reaction in a 384-well format using the SpectraMax Paradigm multimode microplate detection platform (Molecular Devices). Data were analyzed after carrying out at least three independent experiments using GraphPad Prism software version 8.

[4] = target: T4, PBD1 F559K mutant (Homo sapiens, UniProt P53350, F559K); test: FP-based binding/inhibition assay, PBD1 F559K; conditions: PBD1 F559K, 2 µM protein
T4 construct: constructs expressing PBD1 (residues 345–603) WT (pKM7650); His; TEV site (N); made in house; host or cells: bacteria (E. coli)
Description: as §2
Fig. S4. Generation of F559 mutants for in vitro and cell-based assays in Fig. 4. (A) SDS-PAGE showing the proteins used for the FP assays in Fig. 4 A and B. CBB, a Coomassie Brilliant Blue– stained gel. (B) Summary of Kd and EC85 values for PBD1 WT and mutants. The Kd values for PBD1 WT and mutants were determined after extrapolating them from the binding curves as the concentration at which 50% of the FITC-Ahx-DPPLHSpTAI-NH2 are PBD1-bound. The EC85 values indicate the effective concentration of 85% of the maximal concentration calculated for each protein. The FP values were obtained 30 minutes after incubation. For the F559K and F559R mutants, we were not able to determine the EC85 values and therefore used 2 µM of these proteins for the assays in Fig. 4B. N.D., not determined. […]

[5] = system: HeLa cells; test: Time-lapse analysis of double thymidine-released HeLa cells; type: cell-based; conditions: HeLa released from double-thymidine block, 10 μM added 7 h after release
Description: To carry out time-lapse analysis, HeLa cells were arrested at the G1/S boundary by treating them with 2.5 mM of thymidine for 18 h, releasing them for 9 h, and then treating them again with the same dose of thymidine for another 18 h. The resulting cells were washed with fresh medium, released from the double-thymidine block for 7 h, and then treated with control DMSO or 10 μM of Allopole to examine their effect on cell cycle progression. At the indicated time points, cells were imaged every 30 min using a Keyence BZ-X710 all-in-one microscope.

[6] = system: U2OS cells expressing Pendo-mGFP-Plk1 WT; test: MTS proliferation assay, U2OS Plk1 RNAi cells expressing WT Plk1; type: cell-based; conditions: WT Plk1, 3 to 6 μM, 36 h
Description: Cell viability was determined using the […] CellTiter 96® AQueous One Solution Cell Proliferation Assay (MTS) kit (Promega) containing a tetrazolium compound [3-(4,5-dimethylthiazol-2-yl)-5-(3-carboxymethoxy-phenyl)-2-(4-sulfophenyl)-2H-tetrazolium, inner salt (MTS)] and an electron-coupling phenazine ethosulfate. For the MTS assays in Fig. 1B, L363 cells cultured in a 96-well plate were treated with the indicated compounds for 48 h (the final volume of 100 μL). After the compound treatment, cells were additionally treated with 20 μL of the MTS solution and incubated at 37 °C for 2 to 4 h in a humidified 5% CO2 atmosphere. The absorbance of the resulting sample was measured at 490 nm using a PerkinElmer EnSpire Multimode 96-well plate reader. For the MTS assays in Fig. 4E, U2OS cells stably expressing either Pendo-mGFP-Plk1 WT or F559D were seeded at approximately 5,000 cells/well in a 96-well plate, depleted of endogenous Plk1 by RNAi, and then treated with either control DMSO or Allopole as indicated in the schematic diagram in SI Appendix, Fig. S4E.

[7] = Solubility in PBS (imaging of insoluble particles, dynamic light scattering); type: physicochemical; conditions: PBS buffer (pH 7.4)
Description: All samples were analyzed after adjusting the concentration to 100 μM solution in the PBS buffer (pH 7.4) containing 1% DMSO. The measurements were carried out at 25 °C using the DynaPro NanoStar system (Wyatt Technology). The intensity of the scattered light was measured as a function of time, and the resulting data were used to calculate the size and distribution of the particles in the sample. Collected data were analyzed using the DYNAMICS software to calculate the mean size and polydispersity index of the particles in the sample. At least three repeat measurements were performed to ensure that the results were accurate and reproducible.
Fig. S1. Solubility and activity of Allopole and its related compounds. (A) Images showing insoluble
particles of 200 µM of the indicated compounds dissolved in the PBS buffer. The aggregates of […]

T1 sequence (P53350 345-603): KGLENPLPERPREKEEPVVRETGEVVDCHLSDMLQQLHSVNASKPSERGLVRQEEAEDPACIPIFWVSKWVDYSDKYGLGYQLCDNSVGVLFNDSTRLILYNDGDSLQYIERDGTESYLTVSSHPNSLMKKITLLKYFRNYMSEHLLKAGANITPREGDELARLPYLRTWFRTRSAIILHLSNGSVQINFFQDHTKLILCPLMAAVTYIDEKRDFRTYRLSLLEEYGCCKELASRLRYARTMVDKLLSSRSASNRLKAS
T4 sequence (P53350 345-603 F559K): as the sequence (P53350 345-603) above, with F215K counted along it

Compound	IC50 ([1]; FP, bacterially expressed purified PBD, FITC-ligand 15 nM, PBD at EC85, read-out: PBD1 IC50 ± SD)	Inhibition of FITC-phosphopeptide binding (in words) ([1]; PBD1 WT at EC85)	PBD2 IC50 ± SD [2]	PBD3 IC50 ± SD [3]	Inhibition of FITC-phosphopeptide binding (in words) [4]	Mitotic progression (in words) [5]	Proliferation rate (in words) [6]	Solubility (in words) [7]
O=c1c2sc(Cl)cc2n2c(=S)[nH]nc2n1CC1CC1 [Allopole-A]	2.5 nM and 2.53 nM	effectively inhibited PBD1 WT	N. S.	N. S.	failed to inhibit	–	–	–
Cn1cnc([N+](=O)[O-])c1Sc1nnc2n(CC3CC3)c(=O)c3sc(Cl)cc3n12 [Allopole]	–	–	–	–	–	effectively blocked mitotic progression for several hours and induced cell death	significant reduction in their proliferation rate	greatly increased solubility
